{"source": "PubChem BioAssay (NCI)", "assay_in_all_cases": "inhibition of tumour cell growth, NCI panel, 48 h", "key": {"[1]": {"system": "HCC-2998 colon"}, "[2]": {"system": "HL-60(TB) leukemia"}, "[3]": {"system": "HT29 colon"}, "[4]": {"system": "KM12 colon"}, "[5]": {"system": "MDA-N"}, "[6]": {"system": "SF-268 CNS"}, "[7]": {"system": "SF-539 CNS"}, "[8]": {"system": "SK-MEL-28 melanoma"}, "[9]": {"system": "SNB-75 CNS"}, "[10]": {"system": "TK-10 renal"}}, "note": "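Assay format: 96-well plates, 48-hour exposure. TGI is the concentration that stops growth completely.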"}
{"smiles": "Nc1nc2cc3nc(N)c(N)nc3cc2nc1N", "values": [{"measurement": "TGI", "setting": "[1]", "value": "> 100", "unit": "µM"}, {"measurement": "TGI", "setting": "[2]", "value": "> 100", "unit": "µM"}, {"measurement": "TGI", "setting": "[3]", "value": "> 100", "unit": "µM"}, {"measurement": "TGI", "setting": "[4]", "value": "> 100", "unit": "µM"}, {"measurement": "TGI", "setting": "[5]", "value": "> 100", "unit": "µM"}, {"measurement": "TGI", "setting": "[6]", "value": "> 100", "unit": "µM"}, {"measurement": "TGI", "setting": "[7]", "value": "> 100", "unit": "µM"}, {"measurement": "TGI", "setting": "[8]", "value": "> 100", "unit": "µM"}, {"measurement": "TGI", "setting": "[9]", "value": "> 100", "unit": "µM"}, {"measurement": "TGI", "setting": "[10]", "value": "> 100", "unit": "µM"}]}
{"smiles": "O=C1CCC[C@@H]2NC[C@@H](c3ccc4c(c3)OCO4)[C@H]12", "values": [{"measurement": "TGI", "setting": "[1]", "value": "> 25", "unit": "µM"}, {"measurement": "TGI", "setting": "[2]", "value": "> 25", "unit": "µM"}, {"measurement": "TGI", "setting": "[3]", "value": "> 25", "unit": "µM"}, {"measurement": "TGI", "setting": "[4]", "value": "> 25", "unit": "µM"}, {"measurement": "TGI", "setting": "[5]", "value": "> 25", "unit": "µM"}, {"measurement": "TGI", "setting": "[6]", "value": "> 25", "unit": "µM"}, {"measurement": "TGI", "setting": "[8]", "value": "> 25", "unit": "µM"}, {"measurement": "TGI", "setting": "[9]", "value": "> 25", "unit": "µM"}, {"measurement": "TGI", "setting": "[10]", "value": "> 25", "unit": "µM"}]}
{"smiles": "C=C1CC(COc2cc(=O)oc3ccccc23)(c2ccccc2)OC1=O", "note": "(configuration not stated)", "values": [{"measurement": "TGI", "setting": "[1]", "value": 4.21, "unit": "µM"}, {"measurement": "TGI", "setting": "[2]", "value": 6.34, "unit": "µM"}, {"measurement": "TGI", "setting": "[3]", "value": 3.4, "unit": "µM"}, {"measurement": "TGI", "setting": "[4]", "value": 12.7, "unit": "µM"}, {"measurement": "TGI", "setting": "[5]", "value": 5.57, "unit": "µM"}, {"measurement": "TGI", "setting": "[6]", "value": 29.7, "unit": "µM"}, {"measurement": "TGI", "setting": "[7]", "value": 7.69, "unit": "µM"}, {"measurement": "TGI", "setting": "[8]", "value": 6.13, "unit": "µM"}, {"measurement": "TGI", "setting": "[9]", "value": 12.3, "unit": "µM"}, {"measurement": "TGI", "setting": "[10]", "value": 3.89, "unit": "µM"}]}
{"smiles": "C[N+]1=C2[B-](C(C)(C)C)=[N+](C(C)(C)C)[B-]2(C(C)(C)C)[N+](C)=C2[B-](C(C)(C)C)=[N+](C(C)(C)C)[B-]21C(C)(C)C", "note": "(configuration not stated)", "values": [{"measurement": "TGI", "setting": "[1]", "value": "> 100", "unit": "µM"}, {"measurement": "TGI", "setting": "[2]", "value": "> 100", "unit": "µM"}, {"measurement": "TGI", "setting": "[3]", "value": "> 100", "unit": "µM"}, {"measurement": "TGI", "setting": "[4]", "value": "> 100", "unit": "µM"}, {"measurement": "TGI", "setting": "[5]", "value": "> 100", "unit": "µM"}, {"measurement": "TGI", "setting": "[6]", "value": "> 100", "unit": "µM"}, {"measurement": "TGI", "setting": "[8]", "value": "> 100", "unit": "µM"}, {"measurement": "TGI", "setting": "[9]", "value": "> 100", "unit": "µM"}, {"measurement": "TGI", "setting": "[10]", "value": "> 100", "unit": "µM"}]}
{"smiles": "O=c1nc(N2CCN(c3ccccc3)CC2)ccn1C1OC(CO)C(O)C1O", "note": "(configuration not stated)", "values": [{"measurement": "TGI", "setting": "[1]", "value": "> 100", "unit": "µM"}, {"measurement": "TGI", "setting": "[2]", "value": 63.5, "unit": "µM"}, {"measurement": "TGI", "setting": "[3]", "value": "> 100", "unit": "µM"}, {"measurement": "TGI", "setting": "[4]", "value": "> 100", "unit": "µM"}, {"measurement": "TGI", "setting": "[5]", "value": "> 100", "unit": "µM"}, {"measurement": "TGI", "setting": "[6]", "value": "> 100", "unit": "µM"}, {"measurement": "TGI", "setting": "[7]", "value": "> 100", "unit": "µM"}, {"measurement": "TGI", "setting": "[8]", "value": "> 100", "unit": "µM"}, {"measurement": "TGI", "setting": "[10]", "value": "> 100", "unit": "µM"}]}
{"smiles": "OC1C2[C@@H](O)CCCN2C[C@@H](O)[C@H]1O", "note": "(some centres not stated)", "values": [{"measurement": "TGI", "setting": "[1]", "value": "> 100", "unit": "µM"}, {"measurement": "TGI", "setting": "[2]", "value": "> 100", "unit": "µM"}, {"measurement": "TGI", "setting": "[3]", "value": "> 100", "unit": "µM"}, {"measurement": "TGI", "setting": "[4]", "value": "> 100", "unit": "µM"}, {"measurement": "TGI", "setting": "[5]", "value": "> 100", "unit": "µM"}, {"measurement": "TGI", "setting": "[6]", "value": "> 100", "unit": "µM"}, {"measurement": "TGI", "setting": "[7]", "value": "> 100", "unit": "µM"}, {"measurement": "TGI", "setting": "[8]", "value": "> 100", "unit": "µM"}, {"measurement": "TGI", "setting": "[9]", "value": "> 100", "unit": "µM"}, {"measurement": "TGI", "setting": "[10]", "value": "> 100", "unit": "µM"}]}
{"smiles": "CC(C)(N=NC(C)(C)C(=O)NCCO)C(=O)NCCO", "values": [{"measurement": "TGI", "setting": "[1]", "value": "> 100", "unit": "µM"}, {"measurement": "TGI", "setting": "[2]", "value": "> 100", "unit": "µM"}, {"measurement": "TGI", "setting": "[3]", "value": "> 100", "unit": "µM"}, {"measurement": "TGI", "setting": "[4]", "value": "> 100", "unit": "µM"}, {"measurement": "TGI", "setting": "[5]", "value": "> 100", "unit": "µM"}, {"measurement": "TGI", "setting": "[6]", "value": "> 100", "unit": "µM"}, {"measurement": "TGI", "setting": "[7]", "value": "> 100", "unit": "µM"}, {"measurement": "TGI", "setting": "[8]", "value": "> 100", "unit": "µM"}, {"measurement": "TGI", "setting": "[10]", "value": "> 100", "unit": "µM"}]}
{"smiles": "CC(=O)OCC(C)C1=C(O)C(=O)C2(C)C/C=C(/C)CC/C=C(\\C)CCC(O)C(C)CCC12", "note": "(configuration not stated)", "values": [{"measurement": "TGI", "setting": "[2]", "value": 66.7, "unit": "µM"}, {"measurement": "TGI", "setting": "[3]", "value": 33.3, "unit": "µM"}, {"measurement": "TGI", "setting": "[4]", "value": 28.7, "unit": "µM"}, {"measurement": "TGI", "setting": "[5]", "value": 33.6, "unit": "µM"}, {"measurement": "TGI", "setting": "[6]", "value": 35.4, "unit": "µM"}, {"measurement": "TGI", "setting": "[7]", "value": 31, "unit": "µM"}, {"measurement": "TGI", "setting": "[8]", "value": 31.7, "unit": "µM"}, {"measurement": "TGI", "setting": "[9]", "value": 30.5, "unit": "µM"}, {"measurement": "TGI", "setting": "[10]", "value": 35.9, "unit": "µM"}]}
{"smiles": "CC(O[Si](c1ccccc1)(c1ccccc1)C(C)(C)C)[C@H](NC(=O)OC(C)(C)C)C(=O)O[Si](c1ccccc1)(c1ccccc1)C(C)(C)C", "note": "(some centres not stated)", "values": [{"measurement": "TGI", "setting": "[1]", "value": 34.7, "unit": "µM"}, {"measurement": "TGI", "setting": "[2]", "value": 31, "unit": "µM"}, {"measurement": "TGI", "setting": "[3]", "value": 23.9, "unit": "µM"}, {"measurement": "TGI", "setting": "[4]", "value": 24.3, "unit": "µM"}, {"measurement": "TGI", "setting": "[5]", "value": 34.1, "unit": "µM"}, {"measurement": "TGI", "setting": "[6]", "value": 31.1, "unit": "µM"}, {"measurement": "TGI", "setting": "[8]", "value": 28.5, "unit": "µM"}, {"measurement": "TGI", "setting": "[9]", "value": 29, "unit": "µM"}, {"measurement": "TGI", "setting": "[10]", "value": 31.1, "unit": "µM"}]}
{"smiles": "CCN1CC2=C(NC(=S)NC2c2ccc(Cl)cc2)/C(=C/c2ccc(Cl)cc2)C1", "note": "(configuration not stated)", "values": [{"measurement": "TGI", "setting": "[1]", "value": "> 100", "unit": "µM"}, {"measurement": "TGI", "setting": "[2]", "value": "> 100", "unit": "µM"}, {"measurement": "TGI", "setting": "[3]", "value": "> 100", "unit": "µM"}, {"measurement": "TGI", "setting": "[4]", "value": "> 100", "unit": "µM"}, {"measurement": "TGI", "setting": "[5]", "value": "> 100", "unit": "µM"}, {"measurement": "TGI", "setting": "[6]", "value": "> 100", "unit": "µM"}, {"measurement": "TGI", "setting": "[8]", "value": "> 100", "unit": "µM"}, {"measurement": "TGI", "setting": "[9]", "value": "> 100", "unit": "µM"}, {"measurement": "TGI", "setting": "[10]", "value": "> 100", "unit": "µM"}]}
{"smiles": "Cc1nnc2n1N=C(c1cc(F)c(Cl)cc1Cl)/C(=C/c1ccc(Cl)cc1)S2", "values": [{"measurement": "TGI", "setting": "[1]", "value": 28.5, "unit": "µM"}, {"measurement": "TGI", "setting": "[2]", "value": "> 100", "unit": "µM"}, {"measurement": "TGI", "setting": "[3]", "value": 34.5, "unit": "µM"}, {"measurement": "TGI", "setting": "[4]", "value": 25.4, "unit": "µM"}, {"measurement": "TGI", "setting": "[5]", "value": 35.4, "unit": "µM"}, {"measurement": "TGI", "setting": "[6]", "value": "> 100", "unit": "µM"}, {"measurement": "TGI", "setting": "[7]", "value": 92.3, "unit": "µM"}, {"measurement": "TGI", "setting": "[8]", "value": "> 100", "unit": "µM"}, {"measurement": "TGI", "setting": "[10]", "value": "> 100", "unit": "µM"}]}
